In one experiment the test system is rat jejunum. Put plainly: Short circuit current (Isc) in Ussing chamber across rat jejunum tissue. The conditions noted are these: for inhibition of SP-333-stimulated Isc: inhibitor pretreatment 5 min, 1 μM SP-333.
In another experiment the test system is T84 cells. In words: Short circuit current (Isc) in Ussing chamber across T84 cells monolayer.
Experiment [1] deals with female Sprague-Dawley rats. In words: GI transit (charcoal meal) after single oral SP-333 in opioid naïve rats. The experiment is classed as in vivo, rat. The protocol: FIGS. 7A-B is a series of graphs showing that oral treatment with SP-333 increases GI transit in rats. […] Panel A is a bar graph showing that SP-333 increases GI transit by 5.6%, 13%, and 23% at 0.05, 0.5, and 5 mg/kg, respectively in opioid naïve animals. Panel B is a distribution graph showing the data of each individual animal.
(§1) Effect of SP-333 on opioid-induced GI transit delay in rats: The ability of opioids to delay GI transit in rats was tested by either administering 0 (vehicle) 0.25, 1 and 2.5 mg/kg of morphine or 0 (vehicle), 0.25, 2.5 and 5 mg/kg of methadone (1.5 ml/kg dose volume) by IP injection. Water served as vehicle control. Ten minutes later, a 2 mL charcoal meal consisting of 10% activated charcoal (Sigma-Aldrich, St. Louis, Mo.) and 10% gum Arabic (Sigma-Aldrich, St. Louis, Mo.) in water was administered via oral gavage. Rats were euthanized 10 min after the charcoal meal via IP injection of 150 mg/kg Beuthanasia-D solution (sodium pentobarbital, 390 mg/mL). The small intestine was removed and the total length from the pyloric sphincter to the ileocecal junction was recorded, as well as the distance travelled by the leading edge of the charcoal. Intestinal transit was determined by calculating the ratio (expressed as a percentage) of the distance between the pyloric sphincter and the leading edge of the charcoal to the distance between the pyloric sphincter and the ileocecal junction.

In experiment [2] the test system is female Sprague-Dawley rats. In words: Reversal of morphine-induced delayed GI transit by oral SP-333. The class given is in vivo, rat. The protocol:
as §1
To evaluate the ability of SP-333 to reverse morphine induced delayed GI transit, animals were administered 2.5 mg/kg of morphine by IP injection followed immediately by oral gavage of 0 (vehicle), 0.5, 2.5, 5 and 50 mg/kg of SP-333 (1.5 ml/kg dose volume). Water served as vehicle control. Charcoal meal was administered ten minutes later and animals were euthanized ten minutes after the charcoal meal and intestinal transit was calculated as described above.

The test system of experiment [3] is female Sprague-Dawley rats. In words: Reversal of methadone-induced delayed GI transit by oral SP-333. The class given is in vivo, rat. Here is the method:
as §1
To evaluate the ability of SP-333 to reverse methadone induced delayed GI transit, animals were administered 2.5 mg/kg of methadone by IP injection. Ten minutes later, an oral gavage of 0 (vehicle), 0.1, 0.5, 2.5, 5 and 50 mg/kg of SP-333 (1.5 ml/kg dose volume) was administered followed immediately by a 2 mL oral gavage of the charcoal meal. Ten minutes after the charcoal meal, animals were euthanized and intestinal transit was calculated as described above.

Experiment [4] concerns female Sprague-Dawley CD rats. Put plainly: GI transit delay induced by repeated methadone administration. The experiment is classed as in vivo, rat. Particulars: for GI transit after repeated methadone dosing (words): repeated daily IP methadone (5 then 2.5 mg/kg). Here is the method: The ability of SP-333 to alleviate GI transit delay induced by repeated methadone administration was also evaluated in the similar manner. Female Sprague-Dawley CD rats 7 to 8 weeks of age (n=7/group) received via IP injection 16 doses of methadone (once daily; 7 doses @ 5 mg/kg and 9 doses @ 2.5 mg/kg). Ten minutes following each methadone dose, each group received an oral gavage of vehicle, 2.5, and 5 mg/kg of SP-333. At the end of the dosing regimen, animals were fasted overnight and GI transit was evaluated as described above.

Experiment [5] deals with female Sprague-Dawley CD rats. Put plainly: Methadone-induced constipation (fecal pellet output). The class given is in vivo, rat. Here is the method:
Effect of SP-333 on methadone-induced constipation in rats: To identify the methadone dose that induces constipation in rats, female Sprague-Dawley CD rats 7 to 8 weeks of age (n=6/group) were administered 0 (vehicle), 2.5, 5, and 7.5 mg/kg of methadone (1.5 ml/kg dose volume) by IP injection once a day for 5 days. Fecal pellets were collected at 4 h intervals during the light cycle and average number of pellets was recorded for each group during the course of the study following daily dose administrations of methadone.
To evaluate the ability of SP-333 to relieve methadone-induced constipation, female Sprague-Dawley CD rats 7 to 8 weeks of age (n=7/group) were administered 5 mg/kg of methadone (or vehicle) each day for 7 days via IP injection to induce constipation. Ten minutes following the IP dose each day, an oral gavage of 2.5, and 5 mg/kg of SP-333 or vehicle (buffer) was administered. Fecal pellets were collected at 4 h intervals during the light cycle and average number of pellets recorded for each group during the course of the study following daily administration of vehicle, methadone or combination of methadone and SP-333.

Experiment [6] has as its system female Sprague-Dawley rats. In words: Opioid-induced GI transit delay after single IP opioid dose (charcoal meal). The experiment is classed as in vivo, rat. Here is the method:
Animals: All study procedures were conducted under a study outline approved by the Institutional Animal Care and Use Committee of MB Research Labs (Spinnerstown, Pa.) or Lampire Biological Laboratories (Pipersville, Pa.). Seven to eight week old female Sprague-Dawley rats [Crl:CD(SD)], weighing between ˜180-210 grams, were obtained from Charles River Laboratories and allowed to acclimate for a week. Animals were maintained on a 12 hour light-dark cycle. For intestinal tissue collection and evaluation of GI transit, rats were fasted for at least 18 hours before the experiment, with free access to water.
as §1

[7] abbreviates: 5 μM methadone apical 5 min, then 1 μM SP-333.
Where [8] appears, read: 5 μM morphine apical 5 min, then 1 μM SP-333.

Data on six compounds can be found in patent publication US20160220630A1, “AGONISTS OF GUANYLATE CYCLASE USEFUL FOR THE TREATMENT OF OPIOID INDUCED DYSFUNCTIONS” (priority 2013, published 2016).

Entries after “also recorded” stand apart in the source; their conditions may differ. Positions of bridges follow the written chain, without caps; N, C: chain ends. Non-standard residues stand in square brackets, D forms with d. Residues, ends and D or L forms follow the SMILES beside them.

Consider `O=C(O)c1ccc(/C=C2\SC(=S)N(c3cccc(C(F)(F)F)c3)C2=O)cc1` [CFTRinh172], for which the “inhibition of SP-333-stimulated Isc” value with rat jejunum was “less compared to that detected in T84 cells”. The “suppression in SP-333-stimulated Isc” value in the experiment on T84 cells (10 μM CFTRinh172, compared with 1 μM SP-333 alone) is listed as 80%.
As for `[Cl][Cd][Cl]` [CdCl2], the “inhibition of SP-333-stimulated Isc” value with rat jejunum is recorded as “minimal effect”. Besides, the “decrease in SP-333-stimulated Isc” value in the experiment with T84 cells (CdCl2 300 μM or mPKI 3.2 μM, 1 μM SP-333) is given as “No appreciable decrease; also recorded: minimal effect”.
Regarding `COC(=O)[C@@]1(OC)C[C@H]2O[C@]1(C)n1c3ccccc3c3c4c(c5c6ccccc6n2c5c31)C(=O)N(C)C4` [PKG-II inhibitor], the “suppression of relative SP-333-stimulated Isc” value in the experiment with T84 cells (PKG-II inhibitor 4 μM, 1 μM SP-333) is “approximately 35%”.
As to `CC(C)C[C@@H]1NC(=O)[C@H](CCC(=O)O)NC(=O)[C@@H](NC(=O)[C@H](CCC(=O)O)NC(=O)[C@H](CC(=O)O)NC(=O)[C@H](N)CC(N)=O)CSSC[C@@H]2NC(=O)[C@H](C)NC(=O)[C@H](C(C)C)NC(=O)[C@H](CC(N)=O)NC(=O)[C@H](C(C)C)NC(=O)[C@H](CSSC[C@@H](C(=O)N[C@H](CC(C)C)C(=O)O)NC(=O)CNC(=O)[C@H]([C@@H](C)O)NC2=O)NC1=O` [SP-333, dAsn^1-Asp^2-Glu^3-Cys^4-Glu^5-Leu^6-Cys^7-Val^8-Asn^9-Val^10-Ala^11-Cys^12-Thr^13-Gly^14-Cys^15-dLeu^16] (H-[dN]DECELCVNVACTGC[dL]-OH; disulfide 4-12, 7-15), the “increase in GI (small intestinal) transit compared to vehicle controls” value in experiment [1] (SP-333 0.05 mg/kg single oral gavage) came to 5.6%; in experiment [1] (SP-333 0.5 mg/kg single oral gavage) it was 13%; in experiment [1] (SP-333 5 mg/kg single oral gavage), 23%. Further, the “GI transit in morphine-treated rats” value was 27% in experiment [2] (morphine 2.5 mg/kg IP + SP-333 0.5 mg/kg oral), 37% in experiment [2] (morphine 2.5 mg/kg IP + SP-333 2.5 mg/kg oral), 46% in experiment [2] (morphine 2.5 mg/kg IP + SP-333 5 mg/kg oral) and 48% in experiment [2] (morphine 2.5 mg/kg IP + SP-333 50 mg/kg oral). For the same compound, the “SP-333 dose sufficient to relieve the effect of morphine on GI transit” value in experiment [2] (morphine 2.5 mg/kg IP, SP-333 oral) came out at 5 mg/kg. The “delay in GI transit caused by morphine” value in experiment [2] (orally administered SP-333) was “completely restored the delay in GI transit”. Further, the “GI transit in methadone-treated rats” value in experiment [3] (methadone 2.5 mg/kg IP + SP-333 0.5 mg/kg oral) came to 40%; in experiment [3] (methadone 2.5 mg/kg IP + SP-333 2.5 mg/kg oral) it was 39%; in experiment [3] (methadone 2.5 mg/kg IP + SP-333 5 mg/kg oral), 44%; in experiment [3] (methadone 2.5 mg/kg IP + SP-333 50 mg/kg oral) it was 52%. Also, the “SP-333 dose sufficient to relieve the effect of methadone on GI transit” value in experiment [3] (methadone 2.5 mg/kg IP, SP-333 oral) turned out to be 5 mg/kg. In addition, the “delay in GI transit caused by methadone” value in experiment [3] (orally administered SP-333) is recorded as “completely restored the delay in GI transit”. Further, in experiment [4] (repeated daily IP methadone (5 then 2.5 mg/kg) + SP-333 2.5 and 5 mg/kg oral), the “GI transit delay after repeated methadone dosing” value is on record as “normalized GI transit; also recorded: relieved the GI-transit delay; also recorded: statistically significant improvement in GI transit delay”. Moreover, the “fecal pellet count compared to the methadone dosed group without SP-333” value in experiment [5] (methadone 5 mg/kg IP + SP-333 2.5 mg/kg oral, once daily 7 days) is reported as “threefold increase; also recorded: significantly relieved methadone-induced constipation”. The “fecal output / average number of pellets” value in experiment [5] (methadone 5 mg/kg IP + SP-333 2.5 and 5 mg/kg oral, once daily 7 days) is listed as “partially restored fecal output; also recorded: higher compared to the methadone dosed group”. Moreover, the “increase in Isc (chloride currents)” value with rat jejunum (SP-333 0.01-10 μM apical) and in the experiment on T84 cells (SP-333 0.01-10 μM apical) was “concentration-dependent increase in Isc approaching saturation at 10 μM” throughout.
As for `CCC(=O)C(CC(C)N(C)C)(c1ccccc1)c1ccccc1` (stereo not shown) [methadone], in experiment [6] (IP), the “methadone dose sufficient to significantly reduce GI transit” value was 2.5 mg/kg. Moreover, the “GI transit delay vs corresponding vehicle controls” value in experiment [6] (methadone 2.5 mg/kg IP) turned out to be 49%. Further, in experiment [6] (methadone 0.25, 2.5 and 5 mg/kg IP), the “effect of methadone on GI transit” value is given as “significantly reduced GI transit; also recorded: statistically significant reduction in GI transit”. Also, the entries for the “GI transit after repeated methadone dosing (words)” value in experiment [4] and in experiment [4] (listed as Methadone) were “significant delay in GI transit” and “significant reduction in GI transit”, respectively. Further, in experiment [5] (daily IP methadone 2.5, 5 and 7.5 mg/kg), the “effect of methadone on fecal output” value was “drastically reduced daily fecal output; also recorded: statistically significant reduction in fecal output”. Also, the “effect of methadone pre-treatment on SP-333-stimulated Isc” value with rat jejunum (setting [7]) and with T84 cells (setting [7]) was “no effect; also recorded: not adversely affected” in each case.
For the compound `CN1CC[C@]23c4c5ccc(O)c4O[C@H]2[C@@H](O)C=C[C@H]3[C@H]1C5` [morphine], the “GI transit slowed by, compared to vehicle controls” value in experiment [6] (morphine 2.5 mg/kg IP single dose) came to 56%. The “effect of morphine on GI transit” value in experiment [6] (morphine IP 0.25, 1.0 and 2.5 mg/kg) is “significantly reduced GI transit”. In addition, the “effect of morphine pre-treatment on SP-333-stimulated Isc” value in the experiment on rat jejunum (setting [8]) and in the experiment on T84 cells (setting [8]) was “negligible effect; also recorded: not adversely affected” throughout.
